Here are results for 48 molecules from US9238039B2, “Pyrazolo[1,5-A]pyrimidines for antiviral treatment” (Gilead Sciences, Inc., priority 2010, dated 2016).

The subject of this test is RSV strain A2. Put plainly: RSV antiviral cytoprotection assay in Hep2 cells (96-well and 384-well format, Cell TiterGlo read-out). To be noted: human respiratory syncytial virus; for inhibition at 0.5 µM: HEp-2, 0.5 uM; for inhibition at 0.5 µM / inhibition at 1 µM: RSV-induced cytopathic effect in Hep2 cells, calculated from fitted dose response curve, normalized to 0% and 100%; for EC50: HEp-2, RSV-induced cytopathic effects, Hep2 cells, class symbols; for inhibition at 1 µM: HEp-2, 1 uM. In kind it is cell-based, Respiratory Syncytial Virus (RSV).

In the case of `Cc1cc(C(=O)N2CCCC[C@H]2c2cc3nc(N4CC[C@H](N)C4)c(C)cn3n2)c2cnn(C)c2n1` [Compound 393], the inhibition – broadly, the percentage by which the read-out fell short of the control – at 0.5 µM was 99% and the EC50 (commonly the concentration giving half of the maximal effect) is 0.1 to 100 nM.

As for `Cc1cc(C2CC2)nc2cc([C@@H]3CCCCN3C(=O)C(NC(=O)OC(C)(C)C)c3cccc(Cl)c3)nn12` (stereo partly drawn) [Compound 238], the inhibition at 0.5 µM is 100% and the EC50 was 101 to 1000 nM.

Take `Cc1cc(C2CC2)nc2cc([C@@H]3CCCCN3C(=O)c3cc(F)cc(Br)c3NS(C)(=O)=O)nn12` [Compound 121]: the inhibition at 0.5 µM is 97% and the EC50 was 0.1 to 100 nM.

For `Cc1nc2cc([C@@H]3CCCCN3C(=O)c3cc(Cl)ccc3NS(C)(=O)=O)nn2c(N(C)C)c1C` [Compound 99], the inhibition at 0.5 µM was 99% and the EC50 was 0.1 to 100 nM.

For `Cc1cn2nc([C@@H]3CCCCN3C(=O)c3cc(Cl)ccc3NS(C)(=O)=O)cc2nc1N1CCC[C@@H](N)C1` [Compound 231], the inhibition at 0.5 µM is 98% and the EC50 lay within 0.1 to 100 nM.

Take `CS(=O)(=O)Nc1ccc(Cl)cc1C(=O)N1CCCC[C@H]1c1cc2nc(N3CCC3)cc(N3CCOCC3)n2n1` [Compound 67]: the inhibition at 0.5 µM is 100% and the EC50 is 0.1 to 100 nM.

For the molecule `Cc1cn2nc([C@@H]3CCCCN3C(=O)c3cccc4c3ccn4C)cc2nc1N1CC[C@H](N)C1` [Compound 349], the inhibition at 0.5 µM is 100% and the EC50 was in the range of 0.1 to 100 nM.

As for `Cc1cc(N2CC(F)C2)nc2cc([C@@H]3CCCCN3C(=O)c3cc(Cl)ccc3NS(C)(=O)=O)nn12` [Compound 47], the inhibition at 0.5 µM was 100% and the EC50 was 0.1 to 100 nM.

With `Cc1cn2nc([C@@H]3CCCCN3C(=O)c3cc(Cl)ccc3NS(C)(=O)=O)cc2nc1N1CCC[C@H]1CO` [Compound 210], the inhibition at 0.5 µM was 81% and the EC50 was 101 to 1000 nM.

For the molecule `Cc1ccc(O)cc1C(=O)N1CCCC[C@H]1c1cc2nc(N3CC[C@H](N)C3)c(C)cn2n1` [Compound 292], the inhibition at 0.5 µM was 59% and the half-maximal effective concentration (EC50) was 101 to 1000 nM.

On to `Cc1cc(C2CC2)nc2cc([C@@H]3CCCCN3C(=O)C(NC(=O)OC(C)(C)C)c3ccccc3)nn12` (stereo partly drawn) [Compound 242], for which the inhibition at 0.5 µM is 72% and the EC50 lay in the range of 101 to 1000 nM.

Take `Cc1cc(C(=O)N2CCCC[C@H]2c2cc3nc(N4CC[C@H](N)C4)c(C)cn3n2)[nH]n1` [Compound 262]: the inhibition at 0.5 µM was 100% and the EC50 lay in the range of 0.1 to 100 nM.

Turning to `Cc1cn2nc([C@@H]3CCCCN3C(=O)c3ccc(-c4ccccc4)cc3)cc2nc1N1CC[C@H](N)C1` [Compound 406], the inhibition at 0.5 µM was 98% and the concentration giving a half-maximal response (EC50) was 0.1 to 100 nM.

Turning to `Cc1ccc(NS(C)(=O)=O)c(C(=O)N2CCCC[C@H]2c2cc3nc(N4CC[C@@H](C#N)C4)c(C)cn3n2)c1` [Compound 188], the inhibition at 0.5 µM is 100% and the EC50 is 0.1 to 100 nM.

On to `CS(=O)(=O)Nc1ccc(Cl)cc1C(=O)N1CCCC[C@H]1c1cc2nc(N3CC[C@@H](C#N)C3)cc(N3CCOCC3)n2n1` [Compound 228], for which the inhibition at 0.5 µM was 100% and the EC50 was in the range of 0.1 to 100 nM.

On to `Cc1cn2nc([C@@H]3CCCCN3C(=O)c3cc(Cl)ccc3NS(C)(=O)=O)cc2nc1N1CC(OP(=O)(O)O)C1` [Compound 244], for which the inhibition at 0.5 µM was 88% and the EC50 was 0.1 to 100 nM.

Turning to `Cc1cn2nc([C@@H]3CCCCN3C(=O)c3cc(Cl)ccc3NS(C)(=O)=O)cc2nc1NC(=N)N` [Compound 139], the inhibition at 0.5 µM is 99% and the concentration giving a half-maximal response (EC50) lay within 0.1 to 100 nM.

`Cc1cn2nc([C@@H]3CCCCN3C(=O)c3cc(Cl)ccc3NS(C)(=O)=O)cc2nc1N1C[C@@H](N)C[C@H]1CO` [Compound 211]: the inhibition at 0.5 µM was 100% and the EC50 lay within 0.1 to 100 nM.

For `CS(=O)(=O)Nc1ccc(Cl)cc1C(=O)N1CCCC[C@H]1c1cc2nc(N3CC(O)C3)cc(N3CCOC3)n2n1` [Compound 77], the inhibition at 0.5 µM was 100% and the EC50 lay in the range of 0.1 to 100 nM.

Take `Cc1cn2nc([C@@H]3CCCCN3C(=O)c3cc(C4CC4)[nH]n3)cc2nc1N1CC[C@H](N)C1` [Compound 297]: the inhibition at 0.5 µM was 95% and the EC50 fell in the range of 0.1 to 100 nM.

As to `COc1cccc(C(=O)N2CCCC[C@H]2c2cc3nc(N4CC[C@H](N)C4)c(C)cn3n2)c1` [Compound 295], the inhibition at 0.5 µM is 97% and the EC50 lay within 0.1 to 100 nM.

As to `Cc1cn2nc([C@@H]3CCCCN3C(=O)c3cc(Cl)ccc3NS(C)(=O)=O)cc2nc1N1CC(CO)C1` [Compound 213], the inhibition at 0.5 µM is 99% and the EC50 was 0.1 to 100 nM.

In the case of `Cc1cn2nc([C@@H]3CCCCN3C(=O)c3cccc(N)c3)cc2nc1N1CC[C@H](C#N)C1` [Compound 153], the inhibition at 0.5 µM is 100% and the EC50 was in the range of 0.1 to 100 nM.

As to `Cc1cn2nc([C@@H]3CCCCN3C(=O)c3cc4ncccn4n3)cc2nc1N1CC[C@H](N)C1` [Compound 315], the inhibition at 0.5 µM was 100% and the 50% effective concentration (EC50) was in the range of 0.1 to 100 nM.

For `CCc1cc(C(=O)N2CCCC[C@H]2c2cc3nc(N4CC[C@H](N)C4)c(C)cn3n2)n(C)n1` [Compound 303], the inhibition at 0.5 µM was 100% and the EC50 lay within 0.1 to 100 nM.

On to `Cc1cn2nc([C@@H]3CCCCN3C(=O)c3ccc(Cn4cccn4)o3)cc2nc1N1CC[C@H](N)C1` [Compound 396], for which the inhibition at 0.5 µM was 99% and the EC50 lay within 0.1 to 100 nM.

`Cc1cn2nc([C@@H]3CCCCN3C(=O)c3ccc(Cl)cc3Cl)cc2nc1N1CC[C@H](N)C1` [Compound 390]: the inhibition at 0.5 µM is 86% and the half-maximal effective concentration (EC50) was 101 to 1000 nM.

Consider `Cc1cn2nc([C@@H]3CCCCN3C(=O)c3cc(Cl)ccc3NS(C)(=O)=O)cc2nc1N1CCCCN1` [Compound 141], for which the inhibition at 0.5 µM is 95% and the half-maximal effective concentration (EC50) is 0.1 to 100 nM.

For `Cc1cn2nc([C@@H]3CCCCN3C(=O)c3cc(Cl)ccc3NS(C)(=O)=O)cc2nc1N1CCCC(O)C1` (stereo partly drawn) [Compound 217], the inhibition at 0.5 µM was 89% and the EC50 was 101 to 1000 nM.

Regarding `Cc1cn2nc([C@@H]3CCCCN3C(=O)c3scnc3C)cc2nc1N1CC[C@H](N)C1` [Compound 287], the EC50 lay in the range of 1000 to 10000 nM.

Regarding `Cc1cn2nc([C@@H]3CCCCN3C(=O)c3cc(Cl)ccc3NS(C)(=O)=O)cc2nc1N1CC[C@H](N)C1` [Compound 202], the inhibition at 0.5 µM was 100% and the EC50 was 0.1 to 100 nM.

On to `Cc1cn2nc([C@@H]3CCCCN3C(=O)c3cc(C4(O)CCCC4)on3)cc2nc1N1CC[C@H](N)C1` [Compound 405], for which the inhibition at 0.5 µM is 99% and the EC50 lay within 0.1 to 100 nM.

Take `Cc1ccc(NS(C)(=O)=O)c(C(=O)N2CCCC[C@H]2c2cc3nc(C)c(C)c(N4CCCC4)n3n2)c1` [Compound 98]: the inhibition at 0.5 µM is 98% and the EC50 was in the range of 0.1 to 100 nM.

For the molecule `CC1(O)CN(c2cc(N3CCC3)nc3cc([C@@H]4CCCCN4C(=O)c4cc(Cl)ccc4NS(C)(=O)=O)nn23)C1` [Compound 105], the inhibition at 0.5 µM was 100% and the EC50 fell in the range of 0.1 to 100 nM.

As for `C[C@H]1CC[C@@H](c2cc3nc(N4CC(N)C4)cc(N4CCOCC4)n3n2)N(C(=O)c2cc(Cl)ccc2NS(C)(=O)=O)C1` [Compound 142], the inhibition at 0.5 µM is 100% and the EC50 was in the range of 0.1 to 100 nM.

Consider `Cc1cn2nc([C@@H]3CCCCN3C(=O)c3ccccc3C(F)(F)F)cc2nc1N1CC[C@H](N)C1` [Compound 387], for which the inhibition at 0.5 µM was 77% and the EC50 is 101 to 1000 nM.

On to `Cc1cn2nc([C@@H]3CCCCN3C(=O)c3cncnc3N)cc2nc1N1CC[C@H](N)C1` [Compound 276], for which the inhibition at 0.5 µM is 90% and the EC50 lay in the range of 101 to 1000 nM.

Turning to `CS(=O)(=O)Nc1ccc(Cl)cc1C(=O)N1CCCC[C@H]1c1cc2nc(N3CC(O)C3)cc(N3CC4(COC4)C3)n2n1` [Compound 58], the inhibition at 0.5 µM was 99% and the EC50 lay in the range of 0.1 to 100 nM.

As for `Cc1cn2nc([C@@H]3CCCCN3C(=O)c3cn4ccccc4n3)cc2nc1N1CC[C@H](N)C1` [Compound 311], the inhibition at 0.5 µM was 100% and the EC50 fell in the range of 0.1 to 100 nM.

For `Cc1ccc(NS(C)(=O)=O)c(C(=O)N2Cc3ccccc3C[C@H]2c2cc3[nH]c(C)c(C)c(=O)n3n2)c1` [Compound 33], the inhibition at 0.5 µM is 98% and the concentration for a half-maximal effect (EC50) fell in the range of 0.1 to 100 nM.

On to `Cc1cn2nc([C@@H]3CCCCN3C(=O)c3ccc(C#N)cn3)cc2nc1N1CC[C@H](N)C1` [Compound 290], for which the EC50 fell in the range of 0.1 to 100 nM.

Regarding `Cc1c[nH]c2cc([C@@H]3CCCCN3C(=O)c3cc(F)ccc3NS(C)(=O)=O)nn2c1=O` [Compound 17], the inhibition at 0.5 µM is 75%, the inhibition at 1 µM was 97% and the 50% effective concentration (EC50) was 101 to 1000 nM.

With `Cc1cn2nc([C@@H]3CCCCN3C(=O)c3cc4cccnc4s3)cc2nc1N1CC[C@H](N)C1` [Compound 362], the inhibition at 0.5 µM was 100% and the EC50 lay in the range of 0.1 to 100 nM.

Take `CS(=O)(=O)Nc1ccc(N)cc1C(=O)N1CCCC[C@H]1c1cc2nc(N3CCC3)cc(N3CCOCC3)n2n1` [Compound 193]: the inhibition at 0.5 µM was 100% and the EC50 lay in the range of 0.1 to 100 nM.

Consider `Cc1ccc(N2CCCS2(=O)=O)c(C(=O)N2CCCC[C@H]2c2cc3nc(C4CC4)cc(C)n3n2)c1` [Compound 113], for which the inhibition at 0.5 µM was 100% and the EC50 lay in the range of 0.1 to 100 nM.

Consider `Cc1cn2nc([C@@H]3CCCCN3C(=O)c3ccc4ccn(C)c4c3)cc2nc1N1CC[C@H](N)C1` [Compound 350], for which the inhibition at 0.5 µM was 83.6% and the EC50 is 101 to 1000 nM.

As to `Cc1[nH]c2cc([C@@H]3CCCCN3C(=O)c3cc(F)ccc3NS(C)(=O)=O)nn2c(=O)c1F` [Compound 19], the inhibition at 0.5 µM is 67%, the inhibition at 1 µM is 84% and the EC50 lay within 101 to 1000 nM.

`Cc1cc(N2CC(O)C2)nc2cc([C@@H]3CCCCN3C(=O)c3cc(Br)ccc3NS(C)(=O)=O)nn12` [Compound 82]: the inhibition at 0.5 µM is 100% and the EC50 was 0.1 to 100 nM.
